Series [1] in a line: Storage stability of concentrated aqueous solution (precipitation at 5° C.). The series is classed as physicochemical. The note with it: aqueous solution of sodium salt, 0.330 mol/kg, 2.0% sodium chloride, no solubilizing agent; 2 weeks at 5° C. As to the method:
(§1) A solution of 21.3 parts aniline-2,5-disulphonic acid and 6.7 parts sodium hydroxide in 30 parts water is added to a stirred suspension of 15.5 parts cyanuric chloride in 50 parts ice water. The pH is kept at 6 by the dropwise addition of 30% sodium hydroxide. The mixture is stirred below 10° C. until primary aromatic amine groups can no longer be detected by the diazo reaction. A solution of 14.8 parts 4,4′-diaminostilbene-2,2′-disulphonic acid and 3.2 parts sodium hydroxide in 20 parts water is then added, the pH is adjusted to between 6.5 and 7.5 by the addition of 30% sodium hydroxide and the mixture is stirred at 30° C. until a negative diazo reaction is obtained. A solution of 12.2 parts L-aspartic acid in 22.9 parts 16% sodium hydoxide is added, and the mixture is heated at reflux for 6 hours, the pH being kept at 7.5 to 8.5 by the addition of 30% sodium hydroxide. The aqueous solution so-formed of (2) in the form of its sodium salt, which is approximately 0.167 mol/kg in concentration, is desalinated by membrane filtration and concentrated to 0.330 mol/kg (50% by weight).
(§2) An aqueous solution of (3) in the form of its sodium salt at a concentration of 0.330 mol/kg (51% by weight) is prepared as described in Example 1 but using 13.5 parts L-glutamic acid in place of 12.2 parts L-aspartic acid.

Series [2] is described as follows: Viscosity of concentrated aqueous solution. The format is physicochemical. The note with it: aqueous solution of sodium salt, 0.330 mol/kg, 2.0% sodium chloride; at 20° C. As to the method: as §1, §2

As for `O=C(O)CC(Nc1nc(Nc2ccc(/C=C/c3ccc(Nc4nc(Nc5cc(S(=O)(=O)O)ccc5S(=O)(=O)O)nc(NC(CC(=O)O)C(=O)O)n4)cc3S(=O)(=O)O)c(S(=O)(=O)O)c2)nc(Nc2cc(S(=O)(=O)O)ccc2S(=O)(=O)O)n1)C(=O)O` (stereo not shown) [Example 1], in series [1], the precipitation on storage entry is given as “no signs of precipitation”. Also, in series [2], the viscosity was 0.23-0.25 Pa.s.

Consider `O=C(O)CCC(Nc1nc(Nc2ccc(/C=C/c3ccc(Nc4nc(Nc5cc(S(=O)(=O)O)ccc5S(=O)(=O)O)nc(NC(CCC(=O)O)C(=O)O)n4)cc3S(=O)(=O)O)c(S(=O)(=O)O)c2)nc(Nc2cc(S(=O)(=O)O)ccc2S(=O)(=O)O)n1)C(=O)O` (stereo not shown) [Example 2], for which, in series [1], the precipitation on storage result is “no signs of precipitation”. Besides, in series [2], the viscosity is 0.23-0.25 Pa.s.

The values are drawn from patent publication US20070186358A1, “Concentrated optical brightener solutions” (priority 2004, published 2007).
